Each block holds one molecule with its values, some of them ahead of it.
How the values were obtained:
Format in all cases: cell-based
KCC2 [1] = target: T1, KCC2 (Rattus norvegicus, UniProt Q63633); assay: SuperClomeleon Cl- flux assay in HEK-293 with and without KCC2; Tl+ and […]+ influx
T1 construct: gene Slc12a5; KCC2b isoform expressed in T-REx-293 cells
T1 sequence (Q63633 43-1139 limits assumed): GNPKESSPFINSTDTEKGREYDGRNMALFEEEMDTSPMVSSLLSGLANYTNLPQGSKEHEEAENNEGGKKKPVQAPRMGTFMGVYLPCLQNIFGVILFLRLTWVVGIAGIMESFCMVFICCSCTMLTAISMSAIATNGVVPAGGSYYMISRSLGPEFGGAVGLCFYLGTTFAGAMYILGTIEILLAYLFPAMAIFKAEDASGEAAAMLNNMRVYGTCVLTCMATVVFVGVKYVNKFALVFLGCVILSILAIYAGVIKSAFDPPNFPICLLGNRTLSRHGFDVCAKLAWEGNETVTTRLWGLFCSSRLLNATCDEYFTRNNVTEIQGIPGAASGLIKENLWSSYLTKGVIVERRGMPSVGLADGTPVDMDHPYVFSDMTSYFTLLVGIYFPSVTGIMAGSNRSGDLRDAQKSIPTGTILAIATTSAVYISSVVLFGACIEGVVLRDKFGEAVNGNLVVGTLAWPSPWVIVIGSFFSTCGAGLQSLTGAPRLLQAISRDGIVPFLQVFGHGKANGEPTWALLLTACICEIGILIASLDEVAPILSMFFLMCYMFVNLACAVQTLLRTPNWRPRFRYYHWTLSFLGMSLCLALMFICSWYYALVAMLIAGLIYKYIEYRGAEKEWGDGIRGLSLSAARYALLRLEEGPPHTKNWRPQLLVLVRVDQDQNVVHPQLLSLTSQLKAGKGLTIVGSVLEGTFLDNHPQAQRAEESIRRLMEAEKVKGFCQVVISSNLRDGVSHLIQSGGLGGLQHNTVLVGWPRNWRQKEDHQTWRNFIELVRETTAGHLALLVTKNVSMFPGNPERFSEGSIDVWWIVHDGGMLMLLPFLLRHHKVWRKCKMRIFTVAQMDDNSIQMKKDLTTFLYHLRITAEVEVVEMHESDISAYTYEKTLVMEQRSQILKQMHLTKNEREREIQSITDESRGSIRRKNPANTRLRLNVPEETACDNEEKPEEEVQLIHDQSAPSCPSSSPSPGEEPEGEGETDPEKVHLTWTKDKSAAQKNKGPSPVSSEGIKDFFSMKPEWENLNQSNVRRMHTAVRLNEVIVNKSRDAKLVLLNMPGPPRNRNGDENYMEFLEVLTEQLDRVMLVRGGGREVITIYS

KCC2 [2] = target: T1, KCC2; assay: SuperClomeleon Cl- flux assay in HEK-293 with and without KCC2
KCC2 [3] = target: T1, KCC2; assay: SuperClomeleon Cl- flux assay in HEK-293 overexpressing KCC2

EC50 (KCC2 [1]): 14.2 ± 0.7 µM
Compound: Cc1ccc(S(=O)(=O)CCCC(=O)N(CCN(C)C)c2nc3c(C)cccc3s2)cc1 [VU0500469, N-(2-(Dimethylamino)Ethyl)-N-(4-Methylbenzo[d]Thiazol-2-yl)-4-Tosylbutanamide]

EC50 (KCC2 [2]): 28.8 ± 4.2 µM
Compound: Cc1cccc2sc(N(CCN(C)C)C(=O)CCCS(=O)(=O)c3ccccc3)nc12 [VU0500458, N-(2-(Dimethylamino)Ethyl)-N-(4-Methylbenzo[d]Thiazol-2-yl)-4-(Phenylsulfonyl)Butanamide]

EC50 (KCC2 [3]): 17.1 ± 1.2 µM
Compound: Cc1cccc2sc(N(CCN(C)C)C(=O)CCCS(=O)(=O)c3ccc(F)cc3)nc12 [VU0916219, N-(2-(Dimethylamino)Ethyl)-4-((4-Fluorophenyl)Sulfonyl)-N-(4-Methylbenzo[d]Thiazol-2-yl)Butanamide]
